In article PMC2359919, “Molecular targeting of retinoic acid metabolism in neuroblastoma: the role of the CYP26 inhibitor R116010 in vitro and in vivo” (British Journal of Cancer, 2007):

Assays:
CYP26A1 = CYP26A1 mRNA expression in neuroblastoma cells, real-time PCR; assay type: cell-based, human; conditions: 0.1 μM retinoid, 24 h; panel of neuroblastoma cell lines; relative to SH-SY5Y cells treated with 0.01 μM ATRA
Protocol: (§1) SH-SY5Y, SH-EP (N- and S-type cells respectively derived from the parental line SK-N-SH), LAN6, IMR-32, NGP and GIMEN neuroblastoma cell lines were cultured routinely in RPMI 1640 medium containing fetal calf serum (10%) and L-glutamine (2 mM). Cells were grown at 37°C in a humidified incubator containing 5% CO2.
(§2) 13-cis-Retinoic acid and ATRA were dissolved in DMSO and diluted in cell culture medium to obtain final concentrations of 0.1–10 μM. The final concentration of DMSO in all cases was <0.2%. All experiments were performed in dim light and tubes containing retinoids were wrapped in aluminium foil.
CYP26 short hairpin RNAs (shRNAs) were generated using the siSTRIKE U6 Hairpin Cloning System (Promega, Southampton, UK). The CYP26A1, B1 and Ctrl siRNA sequences were designed using Promega software. […]
(§3) RNA was reverse-transcribed using Promega's Reverse Transcription System according to the manufacturer's instructions, using random hexamer primers. […] As internal standard, β-actin was measured simultaneously using the endogenous control assay provided by Applied Biosystems. […] Standard curves were generated from serial dilutions of cDNA prepared from cells treated with ATRA (1 μM) and the data were analysed using the GeneAmp Sequence Detection System software. CYP26C1 expression was analysed as described previously ([Taimi et al, 2004]).

neuroblastoma cell lines = test system: neuroblastoma cell lines; set-up: method as in Villablanca et al, 1995; conditions: ref Villablanca et al, 1995; cited from earlier work
RARβ = RARβ mRNA expression in SH-SY5Y cells, real-time PCR; assay type: cell-based, human; conditions: ATRA 0.01 μM or 13cisRA 0.1 μM with R116010 1 μM vs retinoid alone, 24 h
Protocol: as §1, §2
as §3, with “primers. Real-time PCR was performed on 20 ng cDNA using TaqMan gene expression products for human CYP26A1, CYP26B1, CRABPII, RARβ and MYCN in combination with the TaqMan Universal PCR master mix (Applied Biosystems, Warrington, UK).” for “primers.”

[1] = test system: SH-SY5Y, NGP, SH-EP and GIMEN cells; test: Intracellular all-trans-4-oxo-RA levels in neuroblastoma cells, LC/MS; assay type: cell-based, human
Protocol: as §1, §2
Cell pellets obtained from retinoid incubations were re-suspended in 2 ml cell culture medium and disrupted by passing the samples several times through a syringe and hypodermic needle (25G × 1 inches, 0.5 mm × 25 mm; Terumo, Somerset, NJ, USA). Tumour and liver tissues were re-suspended in PBS and homogenised (T25 homogeniser, IKA Laboratories, Staufen, Germany). Retinoids were extracted as described previously ([Veal et al, 2002]; [Armstrong et al, 2005b]). Samples were reconstituted in 200 μl mobile phase A (n-hexane:dichloromethane:propan-2-ol, 400 : 1 : 0.27) and analysed by normal-phase HPLC as described previously ([Veal et al, 2002]). For LC/MS analysis, samples were reconstituted in 200 μl mobile phase A (50% acetonitrile, 50% (0.2%) acetic acid, v v^−1).
Resolution of retinoids was performed with a Luna C18(2) column (3 μm, 50 mm × 2 mm) using a Perkin Elmer LC (Beaconsfield, UK) system, consisting of a vacuum degasser, two series 200 pumps, a thermostatically controlled series 200 autosampler and a Waters 2487 UV absorbance detector. Retinoic isomers and metabolites were separated by gradient reversed-phase chromatography. An injection volume of 20 μl with a flow rate of 0.2 ml min^−1 was used with mobile phase A (50% acetonitrile, 50% (0.2%) acetic acid, v v^−1) and mobile phase B (acetonitrile, 0.1% acetic acid, v v^−1). Linear gradients were employed between the specified times as follows: 0, 100% A; 5 min, 100% A; 15 min, 100% B; 20 min, 100% B; 23 min, 100% A; 35 min, 100% A. An Applied Biosystems (Warrington, UK) API-2000 LC/MS/MS triple Q (quadrupole) mass spectrometer with electrospray ionisation source, controlled by Analyst software, was operated in single quadrupole negative mode for the detection of compounds.

[2] = test system: SH-SY5Y, NGP, SH-EP and GIMEN cells; set-up: method as in Armstrong et al, 2005b; conditions: SH-SY5Y neuroblastoma cells; ref Armstrong et al, 2005b; cited from earlier work

In the case of `CC1=C(/C=C/C(C)=C/C=C/C(C)=C/C(=O)O)C(C)(C)CCC1` [ATRA, all-trans-retinoic acid], the CYP26A1 induction (CYP26A1) is reported as “induced to various extents in SH-SY5Y, LAN6 and NGP cells”.
In the case of `CC1=C(/C=C/C(C)=C/C=C/C(C)=C\C(=O)O)C(C)(C)CCC1` [13cisRA, 13-cis-retinoic acid], the “Concentration effective against neuroblastoma cell lines in vitro” value (neuroblastoma cell lines) is given as 5 µM.
With `C[C@@H]([C@H](c1ccc(Nc2nc3ccccc3s2)cc1)n1ccnc1)N(C)C` [R116010] the “Effect on RARβ expression, co-incubation with retinoid” value (RARβ) was “significant increases”, the “Decrease in AT-4-oxo-RA levels” value ([1]; NGP cells, 10 μM 13cisRA with 10 μM R116010, 24 h) was 13.2 fold and the “Reduction in intracellular AT-4-oxo-RA levels” value ([1]; NGP cells, 10 μM ATRA with 10 μM R116010, 24 h) was 3.8 fold. The “Effect on AT-4-oxo-RA levels” value ([1]; SH-EP and GIMEN cells, 10 μM 13cisRA with 10 μM R116010, 24 h) was “no significant effect”, the “Decrease in AT-4-oxo-RA levels” value ([1]; SH-SY5Y cells, 10 μM 13cisRA with 10 μM R116010, 24 h) was 3.5 fold and the “Reduction in intracellular AT-4-oxo-RA levels” value ([1]; SH-SY5Y cells, 10 μM ATRA with 10 μM R116010, 24 h) was 3 fold. For the same compound, the “Effect on intracellular AT-4-oxo-RA levels” value ([1]; low CYP26-expressing cell lines (SH-EP, GIMEN), 10 μM ATRA with 10 μM R116010, 24 h) was “no significant effect” and the “Inhibition of ATRA metabolism” value [2] was “inhibits ATRA metabolism”.
